Measured values taken from PubChem BioAssay (NCI).
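Values below derive from 48-hour exposures of cells grown in 96-well plates, with endpoints linearly interpolated between the two concentrations bracketing the appropriate inhibition level. Abbreviation: GI50, concentration required for 50% inhibition of growth. Definition used: TGI = concentration required for complete inhibition of growth.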

Columns and labels:
Experiment in all cases: inhibition of tumour cell growth, NCI panel, 48 h
KM12 colon = system: KM12 colon
HCC-2998 colon = system: HCC-2998 colon
TK-10 renal = system: TK-10 renal
HS 578T breast = system: HS 578T breast
SK-OV-3 ovarian = system: SK-OV-3 ovarian
SF-295 CNS = system: SF-295 CNS
UACC-257 melanoma = system: UACC-257 melanoma
RPMI-8226 leukemia = system: RPMI-8226 leukemia
LOX IMVI melanoma = system: LOX IMVI melanoma
HOP-92 NSCLC = system: HOP-92 NSCLC

C[N+]12C=CC=C1C(N1CCCC1)c1sc(-c3ccc(Cl)cc3)cc12 (stereo not drawn)
TGI (KM12 colon): 33.4 µM | TGI (HCC-2998 colon): 29.2 µM | TGI (TK-10 renal): 40.7 µM | TGI (HS 578T breast): 50.9 µM | TGI (SK-OV-3 ovarian): 32.8 µM | TGI (SF-295 CNS): 43.7 µM | TGI (UACC-257 melanoma): 28.9 µM | TGI (RPMI-8226 leukemia): 57.7 µM | TGI (LOX IMVI melanoma): 29.5 µM

O=S(=O)(CC#CCS(=O)(=O)c1ccccc1)c1ccccc1
TGI (KM12 colon): 28.1 µM | TGI (HCC-2998 colon): 35.8 µM | TGI (TK-10 renal): 7.61 µM | TGI (HS 578T breast): > 36.5 µM | TGI (SK-OV-3 ovarian): 27.5 µM | TGI (SF-295 CNS): 43.6 µM | TGI (UACC-257 melanoma): 14.7 µM | TGI (LOX IMVI melanoma): 3.32 µM | TGI (HOP-92 NSCLC): 3.39 µM

CCC1OC(=O)C(C)C(OC2CC(C)(O)C(O)C(C)O2)C(C)C(O)C(C)(O)CC(C)C(=O)C(C)C(O)C1C (stereo not drawn)
TGI (KM12 colon): > 300 µM | TGI (HCC-2998 colon): > 300 µM | TGI (SK-OV-3 ovarian): > 300 µM | TGI (SF-295 CNS): > 300 µM | TGI (UACC-257 melanoma): > 300 µM | TGI (RPMI-8226 leukemia): > 300 µM | TGI (LOX IMVI melanoma): > 300 µM | TGI (HOP-92 NSCLC): > 300 µM

CN(C)CCCN1c2ccc3ccccc3c2Sc2cccc(Cl)c21
TGI (KM12 colon): 4.28 µM | TGI (HCC-2998 colon): 2.96 µM | TGI (TK-10 renal): 5.67 µM | TGI (HS 578T breast): 21.7 µM | TGI (SK-OV-3 ovarian): 26.4 µM | TGI (SF-295 CNS): 12.4 µM | TGI (UACC-257 melanoma): 3.1 µM | TGI (RPMI-8226 leukemia): 3.85 µM | TGI (HOP-92 NSCLC): 9.1 µM

O=C(Cl)c1cc([N+](=O)[O-])cc([N+](=O)[O-])c1
TGI (KM12 colon): > 100 µM | TGI (HCC-2998 colon): > 100 µM | TGI (TK-10 renal): > 100 µM | TGI (SK-OV-3 ovarian): > 100 µM | TGI (SF-295 CNS): > 100 µM | TGI (UACC-257 melanoma): > 100 µM | TGI (RPMI-8226 leukemia): > 100 µM | TGI (LOX IMVI melanoma): > 100 µM | TGI (HOP-92 NSCLC): > 100 µM

CC(C)(C)OC(=O)N1CC(COS(C)(=O)=O)c2ccc(O)cc21 (stereo not drawn)
TGI (KM12 colon): 7.16 µM | TGI (HCC-2998 colon): 0.991 µM | TGI (TK-10 renal): 8.76 µM | TGI (HS 578T breast): 5.75 µM | TGI (SK-OV-3 ovarian): 8.88 µM | TGI (SF-295 CNS): 10.8 µM | TGI (UACC-257 melanoma): 5.54 µM | TGI (RPMI-8226 leukemia): 3.96 µM | TGI (HOP-92 NSCLC): 5.56 µM

NC(N)=NS(=O)(=O)c1ccc(NC(=O)c2c3ccccc3nc3ccccc23)cc1
TGI (KM12 colon): > 100 µM | TGI (HCC-2998 colon): > 100 µM | TGI (TK-10 renal): > 100 µM | TGI (SK-OV-3 ovarian): > 100 µM | TGI (SF-295 CNS): > 100 µM | TGI (UACC-257 melanoma): > 100 µM | TGI (RPMI-8226 leukemia): > 100 µM | TGI (LOX IMVI melanoma): > 100 µM | TGI (HOP-92 NSCLC): > 100 µM

N#C/C(=C/NC(=S)Nc1ccc(S(N)(=O)=O)cc1)C(N)=O
TGI (KM12 colon): > 100 µM | TGI (HCC-2998 colon): > 100 µM | TGI (TK-10 renal): > 100 µM | TGI (HS 578T breast): > 100 µM | TGI (SK-OV-3 ovarian): > 100 µM | TGI (SF-295 CNS): > 100 µM | TGI (UACC-257 melanoma): > 100 µM | TGI (RPMI-8226 leukemia): > 100 µM | TGI (HOP-92 NSCLC): > 100 µM

Nc1cc(N)c2nc(-c3ccccc3)c(Sc3ccc(F)cc3)nc2c1
GI50 (KM12 colon): 20.8 µM | TGI (KM12 colon): 48.5 µM | GI50 (TK-10 renal): 17.4 µM | TGI (TK-10 renal): 42.6 µM | GI50 (HS 578T breast): 27 µM | TGI (HS 578T breast): 62 µM | GI50 (SK-OV-3 ovarian): 15.7 µM | TGI (SK-OV-3 ovarian): 31.6 µM | GI50 (SF-295 CNS): 13.9 µM | TGI (SF-295 CNS): 29.9 µM | GI50 (RPMI-8226 leukemia): 28.3 µM | TGI (RPMI-8226 leukemia): 81.5 µM | GI50 (LOX IMVI melanoma): 22.7 µM | TGI (LOX IMVI melanoma): 41.2 µM | GI50 (HOP-92 NSCLC): 22.9 µM | TGI (HOP-92 NSCLC): 54.8 µM

c1ccc(C2(c3cc4ccccc4[nH]3)OCCO2)cc1
TGI (KM12 colon): > 100 µM | TGI (TK-10 renal): > 100 µM | TGI (SK-OV-3 ovarian): > 100 µM | TGI (SF-295 CNS): > 100 µM | TGI (UACC-257 melanoma): 99.8 µM | TGI (RPMI-8226 leukemia): > 100 µM | TGI (LOX IMVI melanoma): > 100 µM | TGI (HOP-92 NSCLC): > 100 µM

O=c1[nH]/c(=C/c2ccc(OCc3ccccc3)cn2)c(=O)[nH]/c1=C/c1cccnc1
TGI (KM12 colon): > 36.8 µM | TGI (HCC-2998 colon): 3.16 µM | TGI (TK-10 renal): > 100 µM | TGI (SK-OV-3 ovarian): > 100 µM | TGI (SF-295 CNS): 1.65 µM | TGI (UACC-257 melanoma): > 100 µM | TGI (LOX IMVI melanoma): > 100 µM | TGI (HOP-92 NSCLC): > 100 µM

O=C(CSCC(=O)N/N=C\c1cc(Br)cc(Br)c1O)N/N=C\c1cc(Br)cc(Br)c1O
TGI (KM12 colon): > 100 µM | TGI (TK-10 renal): 71.8 µM | TGI (HS 578T breast): > 100 µM | TGI (SK-OV-3 ovarian): > 100 µM | TGI (SF-295 CNS): > 100 µM | TGI (UACC-257 melanoma): 62 µM | TGI (LOX IMVI melanoma): 34.1 µM | TGI (HOP-92 NSCLC): 79 µM

COC(=O)C1(C(=O)OC)CC2=C(S(=O)(=O)c3ccccc3)C[C@@H](C#N)[C@H]2C1
TGI (KM12 colon): > 100 µM | TGI (HCC-2998 colon): 31.2 µM | TGI (TK-10 renal): > 100 µM | TGI (SK-OV-3 ovarian): > 100 µM | TGI (SF-295 CNS): > 100 µM | TGI (UACC-257 melanoma): > 100 µM | TGI (LOX IMVI melanoma): > 100 µM | TGI (HOP-92 NSCLC): > 100 µM

Cc1[nH]c(=O)nc2c1C(=O)N(C(C)C)C(NC(C)C)S2 (stereo not drawn)
TGI (KM12 colon): > 100 µM | TGI (HCC-2998 colon): > 100 µM | TGI (TK-10 renal): > 100 µM | TGI (SK-OV-3 ovarian): > 100 µM | TGI (SF-295 CNS): > 100 µM | TGI (UACC-257 melanoma): > 100 µM | TGI (RPMI-8226 leukemia): > 100 µM | TGI (LOX IMVI melanoma): > 100 µM | TGI (HOP-92 NSCLC): > 100 µM

C[N+](C)(C)CC(=O)N/N=C(\C(=O)Nc1ccc(Cl)cc1)C1C(=O)N(c2ccccc2)N=C1N (stereo not drawn)
TGI (KM12 colon): > 100 µM | TGI (HCC-2998 colon): > 100 µM | TGI (TK-10 renal): > 100 µM | TGI (SK-OV-3 ovarian): > 100 µM | TGI (UACC-257 melanoma): > 100 µM | TGI (RPMI-8226 leukemia): > 100 µM | TGI (LOX IMVI melanoma): > 100 µM | TGI (HOP-92 NSCLC): > 100 µM

O=C(N/N=C/c1cc(-c2ccccc2Cl)c(-c2ccccc2Cl)o1)c1ccncc1
TGI (TK-10 renal): > 100 µM | TGI (SK-OV-3 ovarian): > 100 µM | TGI (SF-295 CNS): > 100 µM | TGI (UACC-257 melanoma): > 100 µM | TGI (RPMI-8226 leukemia): 65.9 µM | TGI (LOX IMVI melanoma): > 100 µM | TGI (HOP-92 NSCLC): > 100 µM

COc1ccc(C2Oc3cc(OC)c(O)cc3[C@@H]2C)cc1 (stereo partly drawn)
TGI (KM12 colon): > 100 µM | TGI (HCC-2998 colon): > 100 µM | TGI (TK-10 renal): > 100 µM | TGI (SK-OV-3 ovarian): > 100 µM | TGI (SF-295 CNS): > 100 µM | TGI (UACC-257 melanoma): > 100 µM | TGI (RPMI-8226 leukemia): 58.2 µM | TGI (LOX IMVI melanoma): 27.9 µM | TGI (HOP-92 NSCLC): 72.1 µM

CC(C)(C)OC(=O)NCCNC(=O)OCc1ccccc1
TGI (KM12 colon): > 100 µM | TGI (HCC-2998 colon): > 100 µM | TGI (TK-10 renal): > 100 µM | TGI (HS 578T breast): > 100 µM | TGI (SK-OV-3 ovarian): > 100 µM | TGI (SF-295 CNS): > 100 µM | TGI (UACC-257 melanoma): > 100 µM | TGI (RPMI-8226 leukemia): > 100 µM | TGI (HOP-92 NSCLC): > 100 µM

Cc1cc(C)n(CN(Cn2nc(C)cc2C)c2ccc(N(Cn3nc(C)cc3C)Cn3nc(C)cc3C)cc2)n1
TGI (KM12 colon): 58.2 µM | TGI (TK-10 renal): 69.8 µM | TGI (HS 578T breast): 57 µM | TGI (SK-OV-3 ovarian): 75.2 µM | TGI (SF-295 CNS): 83.8 µM | TGI (UACC-257 melanoma): 40.6 µM | TGI (RPMI-8226 leukemia): 40 µM | TGI (HOP-92 NSCLC): 62.2 µM

Cc1c2cccc-2c(N(C)C)cc2c1[nH]c1ccccc12
TGI (KM12 colon): 7.98 µM | TGI (TK-10 renal): 13.2 µM | TGI (HS 578T breast): 13.8 µM | TGI (SK-OV-3 ovarian): 15.1 µM | TGI (SF-295 CNS): 25.3 µM | TGI (UACC-257 melanoma): 26.4 µM | TGI (RPMI-8226 leukemia): 5.73 µM | TGI (LOX IMVI melanoma): 15.3 µM | TGI (HOP-92 NSCLC): 3.54 µM

COC[C@@H](N=Cc1ccc(OC)cc1)C(C)C
TGI (KM12 colon): > 100 µM | TGI (TK-10 renal): > 100 µM | TGI (HS 578T breast): > 100 µM | TGI (SK-OV-3 ovarian): > 100 µM | TGI (SF-295 CNS): > 100 µM | TGI (UACC-257 melanoma): > 100 µM | TGI (RPMI-8226 leukemia): > 100 µM | TGI (LOX IMVI melanoma): > 100 µM

CC(C)OP(=O)(OC(C)C)c1ncn(-c2ccc([N+](=O)[O-])cc2)n1
TGI (KM12 colon): > 100 µM | TGI (HCC-2998 colon): > 100 µM | TGI (TK-10 renal): > 100 µM | TGI (SK-OV-3 ovarian): > 100 µM | TGI (SF-295 CNS): > 100 µM | TGI (UACC-257 melanoma): > 100 µM | TGI (RPMI-8226 leukemia): > 100 µM | TGI (HOP-92 NSCLC): > 100 µM

CC(C)Oc1c(O)c2c3c(oc(=O)n3C=CC2c2ccccc2F)c1OC(C)C (stereo not drawn)
TGI (KM12 colon): > 100 µM | TGI (TK-10 renal): > 100 µM | TGI (HS 578T breast): > 100 µM | TGI (SK-OV-3 ovarian): > 100 µM | TGI (SF-295 CNS): 78.1 µM | TGI (UACC-257 melanoma): > 100 µM | TGI (RPMI-8226 leukemia): 51.9 µM | TGI (LOX IMVI melanoma): 33.1 µM | TGI (HOP-92 NSCLC): > 100 µM
